Measurements from ChEMBL document CHEMBL4811216, “Chemotherapy for human schistosomiasis: how far have we come? What's new? Where do we go from here?” (RSC Med Chem, 2020).

How the values were obtained:
Format in all cases: functional
Schistosoma mansoni [1] = assay: Antischistosomal activity against adult Schistosoma mansoni BH assessed as tegument damage at 150 to 200 ug/ml incubated for 120 hrs measured every 24 hrs by light microscopy relative to control; conditions: dose 150-200 µg/ml, at 150 to 200 µg/mL
Schistosoma mansoni [2] = assay: Antischistosomal activity against adult Schistosoma mansoni BH assessed as worm death at 150 to 200 ug/ml incubated for 120 hrs measured every 24 hrs by light microscopy relative to control; conditions: dose 150-200 µg/ml, at 150 to 200 µg/mL
Schistosoma mansoni [3] = assay: Antischistosomal activity against adult Schistosoma mansoni BH infected in Balb/C mouse assessed as reduction in worm burden at 40 mg/kg, po administered at 45 days post infection and measured at 15 days post treatment relative to control; set-up: scale not given: the % may be the effect or the level left; conditions: time 15 day
Schistosoma mansoni [4] = assay: Antischistosomal activity against Schistosoma mansoni Liberian NTS at 10 uM measured after 24 hrs relative to control
Schistosoma mansoni [5] = assay: Antischistosomal activity against juvenile Schistosoma mansoni BH infected in Balb/C mouse assessed as reduction in worm burden at 40 mg/kg, po administered at 21 days post infection and measured at 15 days post treatment relative to control; set-up: scale not given: the % may be the effect or the level left; conditions: time 15 day
Schistosoma mansoni [6] = assay: Antischistosomal activity against adult Schistosoma mansoni BH infected in Balb/C mouse assessed as reduction in number of eggs at 40 mg/kg, po administered at 45 days post infection and measured at 15 days post treatment relative to control; set-up: scale not given: the % may be the effect or the level left; conditions: time 15 day
Schistosoma mansoni [7] = assay: Antischistosomal activity against adult Schistosoma mansoni BH assessed as reduction in motor activity at 150 to 200 ug/ml incubated for 120 hrs measured every 24 hrs by light microscopy relative to control; set-up: scale not given: the % may be the effect or the level left; conditions: dose 150-200 µg/ml, at 150 to 200 µg/mL
Schistosoma mansoni [8] = assay: Antischistosomal activity against Schistosoma mansoni BH assessed as changes in motor activity at 3.125 to 25 ug/ml measured up to 120 hrs by inverted microscopic method relative to control; conditions: dose 3.125-25 µg/ml; time hrs <=120; at 3.125 to 25 µg/mL
Schistosoma mansoni [9] = assay: Antischistosomal activity against Schistosoma mansoni BH assessed as tegument damage at 3.125 to 25 ug/ml measured up to 120 hrs by inverted microscopic method relative to control; conditions: dose 3.125-25 µg/ml; time hrs <=120; at 3.125 to 25 µg/mL
Schistosoma mansoni [10] = assay: Antischistosomal activity against juvenile Schistosoma mansoni BH infected in Balb/C mouse assessed as reduction in worm burden at 100 mg/kg, po measured after 2 weeks; set-up: scale not given: the % may be the effect or the level left
Schistosoma mansoni [11] = assay: Antischistosomal activity against adult Schistosoma mansoni BH infected in Balb/C mouse assessed as reduction in worm burden at 100 mg/kg, po measured after 2 weeks; set-up: scale not given: the % may be the effect or the level left
Schistosoma mansoni [12] = assay: Antischistosomal activity against Schistosoma mansoni BH infected in Balb/C mouse assessed as reduction in worm burden at 100 mg/kg, po measured after 2 weeks by Kato-Katz quantitative method; conditions: Schistosoma mansoni, BH, po, 336 h
Schistosoma japonicum [13] = assay: Antischistosomal activity against juvenile Schistosoma japonicum infected in ICR mouse assessed as reduction in worm burden at 8 mg/kg, ip administered for 5 consecutive days; set-up: scale not given: the % may be the effect or the level left
Schistosoma mansoni [14] = assay: Antischistosomal activity against larva Schistosoma mansoni infected in ICR mouse assessed as reduction in worm burden at 8 mg/kg, ip administered for 5 consecutive days; set-up: scale not given: the % may be the effect or the level left
Schistosoma mansoni [15] = assay: Antischistosomal activity against juvenile Schistosoma mansoni infected in ICR mouse assessed as reduction in worm burden at 8 mg/kg, ip administered for 5 consecutive days; set-up: scale not given: the % may be the effect or the level left
Schistosoma mansoni [16] = assay: Antischistosomal activity against adult Schistosoma mansoni infected in ICR mouse assessed as reduction in worm burden at 8 mg/kg, ip administered for 5 consecutive days; set-up: scale not given: the % may be the effect or the level left
Schistosoma japonicum [17] = assay: Antischistosomal activity against larva Schistosoma japonicum infected in ICR mouse assessed as reduction in worm burden at 8 mg/kg, ip administered for 5 consecutive days; set-up: scale not given: the % may be the effect or the level left
Schistosoma japonicum [18] = assay: Antischistosomal activity against adult Schistosoma japonicum infected in ICR mouse assessed as reduction in worm burden at 8 mg/kg, ip administered for 5 consecutive days; set-up: scale not given: the % may be the effect or the level left
Schistosoma mansoni [19] = assay: Antischistosomal activity against Schistosoma mansoni LE infected in BALB/c mouse assessed as reduction in worm burden at 50 mg/kg, ip administered for 5 consecutive days starting from day 23 post infection by microscopic method relative to control; set-up: scale not given: the % may be the effect or the level left
Schistosoma mansoni [20] = assay: Antischistosomal activity against Schistosoma mansoni LE infected in BALB/c mouse assessed as reduction in egg burden at 50 mg/kg, ip administered for 5 consecutive days starting from day 1 post infection by microscopic method relative to control; set-up: scale not given: the % may be the effect or the level left
Schistosoma mansoni [21] = assay: Antischistosomal activity against Schistosoma mansoni LE infected in BALB/c mouse assessed as reduction in egg burden at 100 mg/kg, ip administered for 5 consecutive days starting from day 1 post infection by microscopic method relative to control; set-up: scale not given: the % may be the effect or the level left
Schistosoma mansoni [22] = assay: Antischistosomal activity against adult Schistosoma mansoni LE measured every 24 hrs for 72 hrs by inverted microscopy
Schistosoma mansoni [23] = assay: Antischistosomal activity against Schistosoma mansoni LE assessed as reduction in egg population at 100 uM measured after 72 hrs by inverted microscopy relative to control; set-up: scale not given: the % may be the effect or the level left
Schistosoma mansoni [24] = assay: Antischistosomal activity against Schistosoma mansoni LE assessed as reduction in egg development by measuring developed eggs at 100 uM measured after 5 days relative to control; set-up: scale not given: the % may be the effect or the level left; conditions: time 5 day
Schistosoma mansoni [25] = assay: Antischistosomal activity against Schistosoma mansoni LE schistosomula measured every 24 hrs for 72 hrs by inverted microscopy
Schistosoma mansoni [26] = assay: Antischistosomal activity against Schistosoma mansoni LE infected in BALB/c mouse assessed as reduction in worm burden at 50 mg/kg, ip administered for 5 consecutive days starting from day 37 post infection by microscopic method relative to control; set-up: scale not given: the % may be the effect or the level left
Schistosoma mansoni [27] = assay: Antischistosomal activity against Schistosoma mansoni LE infected in BALB/c mouse assessed as reduction in egg burden at 10 mg/kg, ip administered for 5 consecutive days starting from day 1 post infection by microscopic method relative to control; set-up: scale not given: the % may be the effect or the level left
Schistosoma mansoni [28] = assay: Antischistosomal activity against Schistosoma mansoni LE infected in BALB/c mouse assessed as reduction in egg burden at 10 mg/kg, ip administered for 5 consecutive days starting from day 23 post infection by microscopic method relative to control; set-up: scale not given: the % may be the effect or the level left
Schistosoma mansoni [29] = assay: Antischistosomal activity against Schistosoma mansoni LE infected in BALB/c mouse assessed as reduction in worm burden at 50 mg/kg, ip administered for 5 consecutive days starting from day 1 post infection by microscopic method relative to control; set-up: scale not given: the % may be the effect or the level left
Schistosoma mansoni [30] = assay: Antischistosomal activity against Schistosoma mansoni LE infected in BALB/c mouse assessed as reduction in worm burden at 10 mg/kg, ip administered for 5 consecutive days starting from day 1 post infection by microscopic method relative to control; set-up: scale not given: the % may be the effect or the level left
Schistosoma mansoni [31] = assay: Antischistosomal activity against Schistosoma mansoni LE infected in BALB/c mouse assessed as reduction in worm burden at 100 mg/kg, ip administered for 5 consecutive days starting from day 37 post infection by microscopic method relative to control; set-up: scale not given: the % may be the effect or the level left
Schistosoma mansoni [32] = assay: Antischistosomal activity against Schistosoma mansoni LE infected in BALB/c mouse assessed as reduction in egg burden at 100 mg/kg, ip administered for 5 consecutive days starting from day 23 post infection by microscopic method relative to control; set-up: scale not given: the % may be the effect or the level left
Schistosoma mansoni [33] = assay: Antischistosomal activity against Schistosoma mansoni LE infected in BALB/c mouse assessed as reduction in worm burden at 100 mg/kg, ip administered for 5 consecutive days starting from day 23 post infection by microscopic method relative to control; set-up: scale not given: the % may be the effect or the level left
Schistosoma mansoni [34] = assay: Antischistosomal activity against Schistosoma mansoni LE infected in BALB/c mouse assessed as reduction in worm burden at 10 mg/kg, ip administered for 5 consecutive days starting from day 37 by microscopic method relative to control; set-up: scale not given: the % may be the effect or the level left
Schistosoma mansoni [35] = assay: Antischistosomal activity against Schistosoma mansoni LE infected in BALB/c mouse assessed as reduction in egg burden at 100 mg/kg, ip administered for 5 consecutive days starting from day 37 post infection by microscopic method relative to control; set-up: scale not given: the % may be the effect or the level left
Schistosoma mansoni [36] = assay: Antischistosomal activity against Schistosoma mansoni LE infected in BALB/c mouse assessed as reduction in worm burden at 100 mg/kg, ip administered for 5 consecutive days starting from day 1 post infection by microscopic method relative to control; set-up: scale not given: the % may be the effect or the level left
Schistosoma mansoni [37] = assay: Antischistosomal activity against Schistosoma mansoni LE infected in BALB/c mouse assessed as reduction in egg burden at 50 mg/kg, ip administered for 5 consecutive days starting from day 37 post infection by microscopic method relative to control; set-up: scale not given: the % may be the effect or the level left
Schistosoma mansoni [38] = assay: Antischistosomal activity against Schistosoma mansoni LE infected in BALB/c mouse assessed as reduction in egg burden at 50 mg/kg, ip administered for 5 consecutive days starting from day 23 post infection by microscopic method relative to control; set-up: scale not given: the % may be the effect or the level left
Schistosoma mansoni [39] = assay: Antischistosomal activity against juvenile Schistosoma mansoni LE measured every 24 hrs for 72 hrs by inverted microscopy
Schistosoma mansoni [40] = assay: Antischistosomal activity against Schistosoma mansoni LE infected in BALB/c mouse assessed as reduction in worm burden at 10 mg/kg, ip administered for 5 consecutive days starting from day 23 by microscopic method relative to control; set-up: scale not given: the % may be the effect or the level left
Schistosoma mansoni [41] = assay: Antischistosomal activity against Schistosoma mansoni LE infected in BALB/c mouse assessed as reduction in egg burden at 10 mg/kg, ip administered for 5 consecutive days starting from day 37 post infection by microscopic method relative to control; set-up: scale not given: the % may be the effect or the level left
Schistosoma mansoni [42] = assay: Antischistosomal activity against Schistosoma mansoni Egyptian assessed as tegument damage at 50 to 200 ug/ml incubated upto 72 hrs by inverted microscopy; conditions: dose 50-200 µg/ml; time hrs <=72; at 50 to 200 µg/mL
Schistosoma mansoni [43] = assay: Antischistosomal activity against Schistosoma mansoni Egyptian assessed as worm death at 50 to 200 ug/ml incubated upto 72 hrs by stereomicroscopy; conditions: dose 50-200 µg/ml; time hrs <=72; at 50 to 200 µg/mL
Schistosoma mansoni [44] = assay: Antischistosomal activity against Schistosoma mansoni Egyptian assessed as reduction in motor activity at 50 to 200 ug/ml incubated upto 72 hrs by stereomicroscopy; set-up: scale not given: the % may be the effect or the level left; conditions: dose 50-200 µg/ml; time hrs <=72; at 50 to 200 µg/mL
Schistosoma mansoni [45] = assay: Antischistosomal activity against Schistosoma mansoni infected in MF1 swiss albino mouse assessed as worm burden reduction at 200 mg/kg, po measured after 2 weeks by stereomicroscopy relative to control; set-up: scale not given: the % may be the effect or the level left
Schistosoma mansoni [46] = assay: Antischistosomal activity against Schistosoma mansoni Egyptian assessed as reduction in egg production at 50 to 200 ug/ml incubated upto 72 hrs by microscopic method relative to control; set-up: scale not given: the % may be the effect or the level left; conditions: dose 50-200 µg/ml; time hrs <=72; at 50 to 200 µg/mL

Cn1cnc(C[C@H]2CCC(=O)[C@@H]2[C@H](O)c2ccccc2)c1
Activity (Schistosoma mansoni [1]): 100%
mortality (Schistosoma mansoni [2]): 100%
Activity (Schistosoma mansoni [3]): 70%
Activity (Schistosoma mansoni [4]): 100%
Activity (Schistosoma mansoni [5]): 50.2%
Activity (Schistosoma mansoni [6]): 80%
Activity (Schistosoma mansoni [7]): 100%

Cn1cncc1C[C@H]1CCC(=O)[C@H]1C(O)c1ccccc1 (stereo partly specified)
Activity (Schistosoma mansoni [8]): 100%
Activity (Schistosoma mansoni [9]): 100%
Activity (Schistosoma mansoni [10]): 58%
Activity (Schistosoma mansoni [11]): 60.6%
mortality at 100 mg/kg (Schistosoma mansoni [12]): 64.1%

C[C@@H]1O[C@@H](O[C@@H]2C[C@@H](O[C@@H]3O[C@H](CO)[C@@H](O)[C@H](O)[C@H]3O)CO[C@H]2O[C@H]2CC[C@]3(C)[C@H]4CC=C5[C@@H]6CC(C)(C)CC[C@]6(C(=O)O)CC[C@@]5(C)[C@]4(C)CC[C@H]3C2(C)C)[C@H](O)[C@H](O)[C@H]1O
Activity (Schistosoma japonicum [13]): 59.9%
Activity (Schistosoma mansoni [14]): 88.6%
Activity (Schistosoma mansoni [15]): 68.3%
Activity (Schistosoma mansoni [16]): 70.6%
Activity (Schistosoma japonicum [17]): 90%
Activity (Schistosoma japonicum [18]): 53.2%

O=C1OC[C@@H](Cc2cc3c(cc2[N+](=O)[O-])OCO3)[C@@H]1Cc1cc2c(cc1[N+](=O)[O-])OCO2
Activity (Schistosoma mansoni [19]): 36%
Activity (Schistosoma mansoni [20]): 52%
Activity (Schistosoma mansoni [21]): 16%
LC50 (Schistosoma mansoni [22]): 102 µM
Activity (Schistosoma mansoni [23]): >83%
Activity (Schistosoma mansoni [24]): <10%
LC50 (Schistosoma mansoni [25]): 20.4 µM
Activity (Schistosoma mansoni [26]): 36%
Activity (Schistosoma mansoni [27]): 40%
Activity (Schistosoma mansoni [28]): 40%
Activity (Schistosoma mansoni [29]): 36%
Activity (Schistosoma mansoni [30]): 33%
Activity (Schistosoma mansoni [31]): 39%
Activity (Schistosoma mansoni [32]): 16%
Activity (Schistosoma mansoni [33]): 39%
Activity (Schistosoma mansoni [34]): 33%
Activity (Schistosoma mansoni [35]): 16%
Activity (Schistosoma mansoni [36]): 39%
Activity (Schistosoma mansoni [37]): 52%
Activity (Schistosoma mansoni [38]): 52%
LC50 (Schistosoma mansoni [39]): 180 µM
Activity (Schistosoma mansoni [40]): 33%
Activity (Schistosoma mansoni [41]): 40%

O=S(=O)(c1ccc(O)c2ncccc12)C1C(c2ccccc2)=Nc2ccncc2N=C1c1ccccc1 (stereo unspecified)
Activity (Schistosoma mansoni [42]): 20%
mortality (Schistosoma mansoni [43]): 100%
Activity (Schistosoma mansoni [44]): 100%
Activity (Schistosoma mansoni [45]): 81.2%
Activity (Schistosoma mansoni [46]): 54%
